Results on two molecules are retold here after patent US20190247376A1, “NICOTINIC ACETYLCHOLINE RECEPTOR AGONIST ATTENUATES ILC2-DEPENDENT AIRWAY HYPERREACTIVITY” (University of Southern California, priority 2016, published 2019).

The conditions of experiment [1]: cited from earlier work.
In another experiment the test system is lung ILC2s. Nature of the experiment: Flow cytometry of proliferation, transcription factor and signalling markers in lung ILC2s. It is filed as cell-based, mouse. Particulars: BALB/cByJ mice, rm-IL-33 0.5 μg, agonist 125 μg, three consecutive days. The source says: FIGS. 5A-5F: Cholinergic signal attenuates ILC2 proliferation and GATA3 expression. (FIG. 5A) Mean fluorescence intensity of Ki67 and percentage of Ki67+ cells in isolated lung ILC2s, stimulated with IL-33 in the absence and presence of α7nAChR. (FIG. 5B) Mean fluorescence intensity of GATA3 in isolated lung ILC2s, stimulated with IL-33 in the absence and presence of α7nAChR. One representative experiment of two is shown (n=5; Student's t test *, p<0.05; **, p<0.01; ***p<0.001). […] FACS-purified ILC2s from WT mice challenged with rm-IL-33 with or without α7nAChR agonist as described in FIG. 3A were quantified by NanoString nCounter technology. Data range from −1 to +1 for the most reduced and most increased gene expression, respectively. (FIG. 5D) Expression of NF-κB p65 in isolated lung ILC2s from mice challenged with IL-33 with (dotted line) or without (thick line) α7nAChR agonist. The level of isotype-matched stain control is shown as a gray-filled histogram. (FIG. 5E) Expression of phosphorylated IKKα/β (Ser176/180) in isolated lung ILC2s stimulated with IL-33, with (dotted line) or without (thick line) α7nAChR agonist for 24 hours. The level of isotype-matched stain control is shown as a gray-filled histogram. (FIG. 5F) Mean fluorescence intensity of phosphorylated IKKα/β with or without α7nAChR agonist.
FIGS. 9A-9C: Effect of α7nAChR agonist on some marker expressions by ILC2s. A cohort of BALB/cByJ mice were intranasally challenged with rm-IL-33 (0.5 μg) with or without α7nAChR agonist (125 μg) for three consecutive days. Histogram and MFI of CD25 (FIG. 9A), CD127 (FIG. 9B) and ST2 (FIG. 9C) in isolated lung ILC2s. Data are representative of at least two independent experiments and are presented as means±SEM (n=4; Student's t test *, p<0.05).
Biotinylated anti-mouse lineage (CD3e (145-2C11), CD45R (RA3-3B2), Gr-1 (RB6-8C5), CD11c (N418), CD11b (M1/70), Ter119 (TER-119), NK1.1 (PK136), TCR-β (H57-597), TCR-γδ (GL3), and FcεRIα (MAR-1), Streptavidin-FITC, FITC anti-mouse CD3 (145-2C11), BV510 anti-mouse CD4 (RM4-5), APC-Cy7 anti-mouse CD25 (PC61), PE anti-mouse CD25 (PC61), BV421 anti-mouse CD25 (PC61), BV510 anti-mouse CD90.2 (53-2.1), APC anti-mouse CD127 (A7R34), PE-Cy7 anti-mouse CD127 (A7R34), FITC anti-mouse CD45 (30F-11), PE/Cy7 anti-mouse CD45 (30-F11), PE anti-mouse IL-5 (TRFK5), BV421 anti-mouse GATA3 (16E10A23), 7-AAD Viability staining solution, purchased from BioLegend (San Diego, Calif.). PE anti-mouse ST2 (IL-33R, RMST2-2), PerCP-eFluor710 anti-Mouse ST2 (RMST2-2), Streptavidin APC-eFluor780, Alexa Fluor647 labeled anti-IL-4 (clone 11B11), eFluor 450 anti-mouse CD45 (30F-11), eFluor450 anti-CD44 (clone IM7), eFluor-660 anti-mouse Ki-67 (SollA15), PE/Cy7 anti-mouse IL-13 (eBio13A), anti-mouse BCL-2 (10C4), were purchased from eBioscience. Alexa Fluor 488 anti-mouse p65-NF-κB (532301) was purchased from R&D Systems (dilution 1:50). Alexa Fluor 647 conjugated α-bungarotoxin (Invitrogen, San Diego, Calif.). PE anti-mouse Phospho-IKKα/β (Ser 176/180) (16A6) was purchased from Cell Signaling Technology (dilution 1:50). PE anti-rat α7nAChR (319) was purchased from Santa Cruz Biotechnology (dilution 1:50). This antibody has been used to identify this receptor previously in several studies^69. Lineage marker antibodies were used at the dilution of 1:400, unless mentioned otherwise other antibodies were used at the dilution of 1:200.
Intracellular staining was performed using BD Cytofix/Cytoperm kit (BD Bioscience, San Jose, Calif.) according to the manufacturer's instructions. For analysis of GATA3 and Ki-67 expression, freshly isolated cells were fixed and permeabilized using Fixation/Permeabilization buffer kit (eBioscience) according to the manufacturer's instructions and as previously described^70.
A general note: Flow cytometry measures light scatter and fluorescence of single cells or particles in a stream.

Regarding `CN1CCCC1c1cccnc1` (stereo not shown) [nicotine], in experiment [1] (HDM-induced asthma model), the AHR result is recorded as “not suppressed” and the Th2 cytokines result is listed as “suppression”. Further, the “HDM-induced allergic lung inflammation” value in experiment [1] (asthma model) is recorded as “attenuated”.
For “3-[(3E)-3-[(2,4-dimethoxyphenyl)methylidene]-5,6-dihydro-4H-pyridin-2-yl]pyridine [GTS-21]”, in the experiment with lung ILC2s, the “expression of CD25, CD127, and ST2 by ILC2s” value was “did not alter”.
